Results taken from US12257237B2 (priority 2017, dated 2025).
Several values for one entry are separate records, joined by “and”; a condition that tells them apart may be missing. Equal entries are not always repeated.

Experiment: Drug tolerability (body weight) in TC-71 Ewing sarcoma xenograft model
Type: in vivo, Athymic nude mice
Conditions: for BWL %: negative = loss vs day 9
Experimental: Experiments were performed with female Athymic nude mice, 9-10 weeks old obtained from Harlan Laboratories (Udine, Italy). They were maintained under Specific Pathogen Free conditions with constant temperature and humidity, according to the institutional guidelines.
Tumour growth mice was monitored two/three times a week (depending on tumour growth rate, to avoid unnecessary stress to the animals) by Vernier caliper. Mice were sacrificed when tumour reached a mean weight of 2±0.5 gr. The antitumour activity will be expressed as T/C %, where T and C were the mean tumour weight of treated and control groups, respectively. Mice were monitored daily and weighted at least two times a week. Tolerability was evaluated on the basis of body weight loss (BWL) and clinical observation.

[1] = EDO40: EDO-S101 40 mg/kg, day 9 from tumour inoculum (treatment start)
[2] = EDO40: EDO-S101 40 mg/kg, day 10 from tumour inoculum
[3] = EDO40: EDO-S101 40 mg/kg, day 11 from tumour inoculum
[4] = EDO40: EDO-S101 40 mg/kg, day 14 from tumour inoculum
[5] = EDO40: EDO-S101 40 mg/kg, day 16 from tumour inoculum
[6] = EDO40: EDO-S101 40 mg/kg, day 18 from tumour inoculum
[7] = EDO40: EDO-S101 40 mg/kg, day 21 from tumour inoculum
[8] = EDO40: EDO-S101 40 mg/kg, day 23 from tumour inoculum
[9] = EDO40: EDO-S101 40 mg/kg, day 25 from tumour inoculum
[10] = EDO40: EDO-S101 40 mg/kg, day 28 from tumour inoculum
[11] = EDO40: EDO-S101 40 mg/kg, day 30 from tumour inoculum
[12] = EDO40: EDO-S101 40 mg/kg, day 32 from tumour inoculum
[13] = EDO60: EDO-S101 60 mg/kg, day 9 from tumour inoculum (treatment start)
[14] = EDO60: EDO-S101 60 mg/kg, day 10 from tumour inoculum
[15] = EDO60: EDO-S101 60 mg/kg, day 11 from tumour inoculum
[16] = EDO60: EDO-S101 60 mg/kg, day 14 from tumour inoculum
[17] = EDO60: EDO-S101 60 mg/kg, day 16 from tumour inoculum
[18] = EDO60: EDO-S101 60 mg/kg, day 18 from tumour inoculum
[19] = EDO60: EDO-S101 60 mg/kg, day 21 from tumour inoculum
[20] = EDO60: EDO-S101 60 mg/kg, day 23 from tumour inoculum
[21] = EDO60: EDO-S101 60 mg/kg, day 25 from tumour inoculum
[22] = EDO60: EDO-S101 60 mg/kg, day 28 from tumour inoculum
[23] = EDO60: EDO-S101 60 mg/kg, day 30 from tumour inoculum
[24] = EDO60: EDO-S101 60 mg/kg, day 32 from tumour inoculum
[25] = EDO60: EDO-S101 60 mg/kg, day 35 from tumour inoculum
[26] = EDO60: EDO-S101 60 mg/kg, day 38 from tumour inoculum
[27] = EDO60: EDO-S101 60 mg/kg, day 42 from tumour inoculum
[28] = EDO60: EDO-S101 60 mg/kg, day 46 from tumour inoculum
[29] = EDO60: EDO-S101 60 mg/kg, day 49 from tumour inoculum
[30] = EDO60: EDO-S101 60 mg/kg, day 53 from tumour inoculum
[31] = EDO60: EDO-S101 60 mg/kg, day 56 from tumour inoculum
[32] = EDO80: EDO-S101 80 mg/kg, day 9 from tumour inoculum (treatment start)
[33] = EDO80: EDO-S101 80 mg/kg, day 10 from tumour inoculum
[34] = EDO80: EDO-S101 80 mg/kg, day 11 from tumour inoculum
[35] = EDO80: EDO-S101 80 mg/kg, day 14 from tumour inoculum
[36] = EDO80: EDO-S101 80 mg/kg, day 16 from tumour inoculum
[37] = EDO80: EDO-S101 80 mg/kg, day 18 from tumour inoculum
[38] = EDO80: EDO-S101 80 mg/kg, day 21 from tumour inoculum
[39] = EDO80: EDO-S101 80 mg/kg, day 23 from tumour inoculum
[40] = EDO80: EDO-S101 80 mg/kg, day 25 from tumour inoculum
[41] = EDO80: EDO-S101 80 mg/kg, day 28 from tumour inoculum
[42] = EDO80: EDO-S101 80 mg/kg, day 30 from tumour inoculum
[43] = EDO80: EDO-S101 80 mg/kg, day 32 from tumour inoculum
[44] = EDO80: EDO-S101 80 mg/kg, day 35 from tumour inoculum
[45] = EDO80: EDO-S101 80 mg/kg, day 38 from tumour inoculum
[46] = EDO80: EDO-S101 80 mg/kg, day 42 from tumour inoculum
[47] = EDO80: EDO-S101 80 mg/kg, day 46 from tumour inoculum
[48] = EDO80: EDO-S101 80 mg/kg, day 49 from tumour inoculum

Cn1c(CCCCCCC(=O)NO)nc2cc(N(CCCl)CCCl)ccc21 [EDO-S101, 7-(5-(bis(2-chloroethyl)amino)-1-methyl-1H-benzo[d]imidazol-2-yl)-N-hydroxyheptanamide]
mice found dead (40 mg/kg group, unknown reasons, probably not ascribable to the drug): One | maximum BWL (40 mg/kg, day 10, 24 h after the first dose): 5.4% | maximum BWL (60 mg/kg, day 25, 48 h after the third dose): 11.7% | maximum body weight loss (80 mg/kg, day 14, 5 days after administration): 19.3% | time to recovery from body weight loss (80 mg/kg, recovered by day 24): ≤ 10 days | Mouse body weight, group Mean [1]: 27.0 g | BWL % [1]: 0.0% | Mouse body weight, group Mean [2]: 25.6 g | BWL % [2]: −5.4% | Mouse body weight, group Mean [3]: 25.9 g | BWL % [3]: −4.0% | Mouse body weight, group Mean [4]: 26.6 g | BWL % [4]: −1.6% | Mouse body weight, group Mean [5]: 27.2 g | BWL % [5]: 0.7% | Mouse body weight, group Mean [6]: 26.1 g | BWL % [6]: −3.4% | Mouse body weight, group Mean [7]: 26.2 g | BWL % [7]: −3.0% | Mouse body weight, group Mean [8]: 27.1 g | BWL % [8]: 0.3% | Mouse body weight, group Mean [9]: 26.3 g | BWL % [9]: −2.9% | Mouse body weight, group Mean [10]: 27.7 g | BWL % [10]: 2.3% | Mouse body weight, group Mean [11]: 28.5 g | BWL % [11]: 5.3% | Mouse body weight, group Mean [12]: 28.7 g | BWL % [12]: 6.0% | Mouse body weight, group Mean [13]: 27.6 g | BWL % [13]: 0.0% | Mouse body weight, group Mean [14]: 25.6 g | BWL % [14]: −7.0% | Mouse body weight, group Mean [15]: 25.2 g | BWL % [15]: −8.6% | Mouse body weight, group Mean [16]: 25.4 g | BWL % [16]: −8.1% | Mouse body weight, group Mean [17]: 26.2 g | BWL % [17]: −5.1% | Mouse body weight, group Mean [18]: 25.2 g | BWL % [18]: −8.8% | Mouse body weight, group Mean [19]: 24.9 g | BWL % [19]: −9.8% | Mouse body weight, group Mean [20]: 25.0 g | BWL % [20]: −9.2% | Mouse body weight, group Mean [21]: 24.4 g | BWL % [21]: −11.7% | Mouse body weight, group Mean [22]: 25.3 g | BWL % [22]: −8.3% | Mouse body weight, group Mean [23]: 25.6 g | BWL % [23]: −7.3% | Mouse body weight, group Mean [24]: 26.4 g | BWL % [24]: −4.2% | Mouse body weight, group Mean [25]: 25.4 g | BWL % [25]: −8.0% | Mouse body weight, group Mean [26]: 25.8 g | BWL % [26]: −6.6% | Mouse body weight, group Mean [27]: 25.8 g | BWL % [27]: −6.5% | Mouse body weight, group Mean [28]: 25.1 g | BWL % [28]: −8.9% | Mouse body weight, group Mean [29]: 25.4 g | BWL % [29]: −8.1% | Mouse body weight, group Mean [30]: 26.7 g | BWL % [30]: −3.1% | Mouse body weight, group Mean [31]: 28.1 g | BWL % [31]: 2.0% | Mouse body weight, group Mean [32]: 27.9 g | Mouse body weight, individual mice (EDO80: EDO-S101 80 mg/kg, day 9 from tumour inoculum (treatment start), 80 mg/kg): 28.4 g and 25.3 g and 26.1 g and 26.6 g and 28.5 g and 27.5 g and 32 g and 28.7 g | BWL % [32]: 0.0% | Mouse body weight, group Mean [33]: 25.3 g | Mouse body weight, individual mice (EDO80: EDO-S101 80 mg/kg, day 10 from tumour inoculum, 80 mg/kg): 25.1 g and 22.8 g and 24 g and 24.8 g and 26.8 g and 24.4 g and 28.6 g and 25.5 g | BWL % [33]: −9.5% | Mouse body weight, group Mean [34]: 24.8 g | Mouse body weight, individual mice (EDO80: EDO-S101 80 mg/kg, day 11 from tumour inoculum, 80 mg/kg): 24.9 g and 22.6 g and 23.5 g and 24.7 g and 26 g and 24.4 g and 27.9 g and 24.3 g | BWL % [34]: −11.1% | Mouse body weight, group Mean [35]: 22.5 g | Mouse body weight, individual mice (EDO80: EDO-S101 80 mg/kg, day 14 from tumour inoculum, 80 mg/kg): 21.8 g and 19.4 g and 22.4 g and 23.5 g and 23.2 g (2×) and 23.8 g and 22.7 g | BWL % [35]: −19.3% | Mouse body weight, group Mean [36]: 23.9 g | Mouse body weight, individual mice (EDO80: EDO-S101 80 mg/kg, day 16 from tumour inoculum, 80 mg/kg): 23.3 g and 19.7 g and 24.2 g and 25.1 g and 24.8 g and 24.4 g and 26.9 g and 22.9 g | BWL % [36]: −14.3% | Mouse body weight, group Mean [37]: 25.2 g | Mouse body weight, individual mice (EDO80: EDO-S101 80 mg/kg, day 18 from tumour inoculum, 80 mg/kg): 24.1 g and 22.2 g and 24.8 g and 26 g and 27 g and 26.1 g and 28 g | BWL % [37]: −9.6% | Mouse body weight, group Mean [38]: 26.2 g | Mouse body weight, individual mice (EDO80: EDO-S101 80 mg/kg, day 21 from tumour inoculum, 80 mg/kg): 25.7 g and 22.6 g and 26.5 g and 26.2 g and 27.4 g and 26.3 g and 29.6 g and 25.2 g | BWL % [38]: −6.1% | Mouse body weight, group Mean [39]: 26.6 g | Mouse body weight, individual mice (EDO80: EDO-S101 80 mg/kg, day 23 from tumour inoculum, 80 mg/kg): 26.1 g and 23.8 g and 26.6 g (3×) and 27.9 g and 30.1 g and 25.2 g | BWL % [39]: −4.6% | Mouse body weight, group Mean [40]: 27.8 g | Mouse body weight, individual mice (EDO80: EDO-S101 80 mg/kg, day 25 from tumour inoculum, 80 mg/kg): 27 g and 25.1 g and 27.9 g and 27.7 g and 28.8 g | BWL % [40]: −0.4% | Mouse body weight, group Mean [41]: 28.9 g | Mouse body weight, individual mice (EDO80: EDO-S101 80 mg/kg, day 28 from tumour inoculum, 80 mg/kg): 27.9 g and 25.4 g and 28.7 g and 28.1 g | BWL % [41]: 3.6% | Mouse body weight, group Mean [42]: 28.5 g | Mouse body weight, individual mice (EDO80: EDO-S101 80 mg/kg, day 30 from tumour inoculum, 80 mg/kg): 28.2 g and 25.3 g and 27.3 g and 27.9 g | BWL % [42]: 2.1% | Mouse body weight, group Mean [43]: 28.0 g | Mouse body weight, individual mice (EDO80: EDO-S101 80 mg/kg, day 32 from tumour inoculum, 80 mg/kg): 27.4 g (2×) and 24.9 g and 26.6 g | BWL % [43]: 0.4% | Mouse body weight, group Mean [44]: 25.1 g | Mouse body weight, individual mice (EDO80: EDO-S101 80 mg/kg, day 35 from tumour inoculum, 80 mg/kg): 24.4 g and 21.9 g and 24.8 g and 26.1 g | BWL % [44]: −9.9% | Mouse body weight, group Mean [45]: 25.0 g | Mouse body weight, individual mice (EDO80: EDO-S101 80 mg/kg, day 38 from tumour inoculum, 80 mg/kg): 24.4 g and 21.8 g and 25.1 g and 25.3 g | BWL % [45]: −10.4% | Mouse body weight, group Mean [46]: 27.1 g | Mouse body weight, individual mice (EDO80: EDO-S101 80 mg/kg, day 42 from tumour inoculum, 80 mg/kg): 26.3 g and 23.1 g and 27 g and 28 g | BWL % [46]: −2.9% | Mouse body weight, group Mean [47]: 28.8 g | Mouse body weight, individual mice (EDO80: EDO-S101 80 mg/kg, day 46 from tumour inoculum, 80 mg/kg): 28.6 g and 25.3 g and 28.3 g and 30 g | BWL % [47]: 3.1% | Mouse body weight, group Mean [48]: 30.2 g | Mouse body weight, individual mice (EDO80: EDO-S101 80 mg/kg, day 49 from tumour inoculum, 80 mg/kg): 29.8 g and 26 g and 30 g and 32.3 g | BWL % [48]: 8.2% | BWL during second cycle (all dose regimens): < 9%
